According to patent US20220218852A1, “NOVEL RADIOLABELLED CXCR4-TARGETING COMPOUNDS FOR DIAGNOSIS AND THERAPY” (PROVINCIAL HEALTH SERVICES AUTHORITY, priority 2019, published 2022):
Positions of bridges follow the written chain, without caps; N, C: chain ends. Non-standard residues stand in square brackets, D forms with d. Residues, ends and D or L forms follow the SMILES beside them. Groups on a side chain read outwards from the residue. *: point of attachment. DOTA = O=C(O)CN1CCN(CC(=O)O)CCN(CC(=O)*)CCN(CC(=O)O)CC1; 2Nal = N[C@@H](Cc1ccc2ccccc2c1)C(=O)O; Lys(iPr) = CC(C)NCCCC[C@H](N)C(=O)O

Assays:
Z138 xenograft = experiment: Dosimetry, Human Extrapolated from Mouse Model, based on Z138 xenograft mice; type: in vivo; conditions: Lu-177, Z138 xenograft mice
Excerpt: (§1) The multi-time-point organ uptake obtained from biodistribution data of ^177Lu-labeled analogs was decayed to their appropriate time-point, fitted to a mono-exponential or bi-exponential model (fit chosen based on R2 and residuals) in Python (version 3.7). The area under the curve was used to compute residence times which were multiplied by model organ mass for human (NURBS model) and mouse (25 g MOBY mouse phantom) for use in OLINDA/EXM software (Hermes Medical Solution; version 2.0) that calculated dosimetry for an average mouse (Stabin et al., J Nucl Med. 2005, 46:1023-1027; Keenan et al., J Nucl Med. 2010, 51:471-476) and extrapolated to an average human male (Segars et al., J Nucl Med. 2001, 42:7; Stabin et al., J Nucl Med. 2012, 53:1807-13).

GRANTA519 xenograft = experiment: Dosimetry, Human Extrapolated from Mouse Model, based on GRANTA519 xenograft mice; type: in vivo; conditions: Lu-177, GRANTA519 xenograft mice
Excerpt: as §1

CC(C)NCCCC[C@@H]1NC(=O)[C@H](Cc2ccc(O)cc2)NC(=O)[C@H](Cc2ccccc2)NC(=O)CC[C@H](C(=O)N[C@@H](CCCCNC(C)C)C(=O)N[C@@H](CCCCNC(=O)[C@H](CCC(=O)O)NC(=O)[C@H](CCC(=O)O)NC(=O)[C@H](CCC(=O)O)NC(=O)CN2CCN(CC(=O)O)CCN(CC(=O)O)CCN(CC(=O)O)CC2)C(N)=O)NC(=O)CNC(=O)[C@H](Cc2ccc3ccccc3c2)NC(=O)[C@@H](CCCNC(=N)N)NC1=O [[^177Lu]Lu-BL02, metal not drawn] (FY[Lys(iPr)][dR][2Nal]G[dE][Lys(iPr)]K([Glu-Glu-Glu-DOTA])-NH2; lactam N-7)
Absorbed Dose, Adrenals (Z138 xenograft; Adrenals): 0.00413 mGy/MBq
Absorbed Dose, Brain (Z138 xenograft; Brain): 4.5e−05 mGy/MBq
Absorbed Dose, Esophagus (Z138 xenograft; Esophagus): 0.000564 mGy/MBq
Absorbed Dose, Eyes (Z138 xenograft; Eyes): 0.000296 mGy/MBq
Absorbed Dose, Gallbladder Wall (Z138 xenograft; Gallbladder Wall): 0.000923 mGy/MBq
Absorbed Dose, Heart (Z138 xenograft; Heart): 0.00148 mGy/MBq
Absorbed Dose, Kidneys (Z138 xenograft; Kidneys): 0.0332 mGy/MBq
Absorbed Dose, Left colon (Z138 xenograft; Left colon): 0.000755 mGy/MBq
Absorbed Dose, Liver (Z138 xenograft; Liver): 0.0183 mGy/MBq
Absorbed Dose, Lungs (Z138 xenograft; Lungs): 0.0126 mGy/MBq
Absorbed Dose, Pancreas (Z138 xenograft; Pancreas): 0.00105 mGy/MBq
Absorbed Dose, Prostate (Z138 xenograft; Prostate): 0.000336 mGy/MBq
Absorbed Dose, Rectum (Z138 xenograft; Rectum): 0.000473 mGy/MBq
Absorbed Dose, Red Marrow (Z138 xenograft; Red Marrow): 0.000377 mGy/MBq
Absorbed Dose, Remainder of the Body (Z138 xenograft; Remainder of the Body): 0.00117 mGy/MBq
Absorbed Dose, Right colon (Z138 xenograft; Right colon): 0.000642 mGy/MBq
Absorbed Dose, Salivary Glands (Z138 xenograft; Salivary Glands): 0.00031 mGy/MBq
Absorbed Dose, Skeleton (Z138 xenograft; Skeleton): 0.000457 mGy/MBq
Absorbed Dose, Small Intestine (Z138 xenograft; Small Intestine): 0.000691 mGy/MBq
Absorbed Dose, Spleen (Z138 xenograft; Spleen): 0.0193 mGy/MBq
Absorbed Dose, Stomach Wall (Z138 xenograft; Stomach Wall): 0.000883 mGy/MBq
Absorbed Dose, Testes (Z138 xenograft; Testes): 0.00168 mGy/MBq
Absorbed Dose, Thymus (Z138 xenograft; Thymus): 0.000454 mGy/MBq
Absorbed Dose, Thyroid (Z138 xenograft; Thyroid): 0.000396 mGy/MBq
Absorbed Dose, Urin Blad (Z138 xenograft; Urin Blad): 0.00032 mGy/MBq
Absorbed Dose, Adrenals (GRANTA519 xenograft; Adrenals): 0.00757 mGy/MBq
Absorbed Dose, Brain (GRANTA519 xenograft; Brain): 7.33e−05 mGy/MBq
Absorbed Dose, Esophagus (GRANTA519 xenograft; Esophagus): 0.00043 mGy/MBq
Absorbed Dose, Eyes (GRANTA519 xenograft; Eyes): 0.000245 mGy/MBq
Absorbed Dose, Gallbladder Wall (GRANTA519 xenograft; Gallbladder Wall): 0.000863 mGy/MBq
Absorbed Dose, Heart (GRANTA519 xenograft; Heart): 0.00148 mGy/MBq
Absorbed Dose, Kidneys (GRANTA519 xenograft; Kidneys): 0.0311 mGy/MBq
Absorbed Dose, Left colon (GRANTA519 xenograft; Left colon): 0.00141 mGy/MBq
Absorbed Dose, Liver (GRANTA519 xenograft; Liver): 0.0185 mGy/MBq
Absorbed Dose, Lungs (GRANTA519 xenograft; Lungs): 0.00333 mGy/MBq
Absorbed Dose, Pancreas (GRANTA519 xenograft; Pancreas): 0.000976 mGy/MBq
Absorbed Dose, Prostate (GRANTA519 xenograft; Prostate): 0.000284 mGy/MBq
Absorbed Dose, Rectum (GRANTA519 xenograft; Rectum): 0.000761 mGy/MBq
Absorbed Dose, Red Marrow (GRANTA519 xenograft; Red Marrow): 0.000343 mGy/MBq
Absorbed Dose, Remainder of the Body (GRANTA519 xenograft; Remainder of the Body): 0.000952 mGy/MBq
Absorbed Dose, Right colon (GRANTA519 xenograft; Right colon): 0.00095 mGy/MBq
Absorbed Dose, Salivary Glands (GRANTA519 xenograft; Salivary Glands): 0.000254 mGy/MBq
Absorbed Dose, Skeleton (GRANTA519 xenograft; Skeleton): 0.000444 mGy/MBq
Absorbed Dose, Small Intestine (GRANTA519 xenograft; Small Intestine): 0.00131 mGy/MBq
Absorbed Dose, Spleen (GRANTA519 xenograft; Spleen): 0.00859 mGy/MBq
Absorbed Dose, Stomach Wall (GRANTA519 xenograft; Stomach Wall): 0.000464 mGy/MBq
Absorbed Dose, Testes (GRANTA519 xenograft; Testes): 0.00245 mGy/MBq
Absorbed Dose, Thymus (GRANTA519 xenograft; Thymus): 0.000336 mGy/MBq
Absorbed Dose, Thyroid (GRANTA519 xenograft; Thyroid): 0.00029 mGy/MBq
Absorbed Dose, Urin Blad (GRANTA519 xenograft; Urin Blad): 0.000269 mGy/MBq
